Experimental data reported in patent publication US11279733B2, “Peptide antibiotics” (priority 2017, dated 2022).
In brackets after ≈: the same amount, converted by molar mass. Where two headings read alike, the source gives them in different places. Positions of bridges follow the written chain, without caps; N, C: chain ends. Non-standard residues stand in square brackets, D forms with d. Residues, ends and D or L forms follow the SMILES beside them. *: point of attachment. Decanoyl(3R-OH) = CCCCCCC[C@@H](O)CC(=O)*; dBip = N[C@H](Cc1ccc(-c2ccccc2)cc1)C(=O)O; X12 = O=C(c1ccn(-c2ccccc2)c(=O)c1)*; Igl = N[C@H](C(=O)O)C1Cc2ccccc2C1; 3Pal = N[C@@H](Cc1cccnc1)C(=O)O; d3Pal = N[C@H](Cc1cccnc1)C(=O)O; Tle = CC(C)(C)[C@H](N)C(=O)O; dOrn = NCCC[C@@H](N)C(=O)O; dDab = NCC[C@@H](N)C(=O)O; Octanoyl = CCCCCCCC(=O)*; dDap = NC[C@@H](N)C(=O)O; Dab = NCC[C@H](N)C(=O)O

Tests used:
[1] = test system: A. baumannii ATCC 19606; conditions: ATCC 19606
Procedure, shortened: (§1)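 Mid-log cultures grown in Mueller Hinton broth at 37° C were tested by 2-fold broth microdilution at 5×10^5 CFU/mL final. Compounds were dissolved in water and tested over a final range of 32 to 0.015 μg/mL.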

[2] = test system: A. baumannii GN_093 PmxR; conditions: GN 093 PmxR
Procedure, shortened: as §1

[3] = test system: E. coli ATCC 25922; conditions: ATCC 25922
Procedure, shortened: as §1

[4] = test system: K. pneumoniae ATCC 13883; conditions: ATCC 13883
Procedure, shortened: as §1

[5] = test system: K. pneumoniae ATCC 700603, MDR; conditions: ATCC 700603
Procedure, shortened: as §1

[6] = test system: K. pneumoniae ATCC BAA-2146, NDM-1 pos; conditions: ATCC BAA-2146
Procedure, shortened: as §1

[7] = test system: K. pneumoniae GN_102 PmxR; conditions: GN 102 PmxR
Procedure, shortened: as §1

[8] = test system: K. pneumoniae GN_106, PmxR; conditions: GN 106, PmxR
Procedure, shortened: as §1

[9] = test system: P. aeruginosa ATCC 27853; conditions: ATCC 27853
Procedure, shortened: as §1

[10] = test system: P. aeruginosa GN_043, PmxR
Procedure, shortened: as §1

[11] = test system: P. aeruginosa GN_105, PmxR; conditions: GN 105, PmxR
Procedure, shortened: as §1

[12] = test system: S. aureus ATCC 25923, MSSA; conditions: ATCC 25923
Procedure, shortened: as §1

[13] = in vitro; conditions: for CC50 at 24 h: human
Procedure, shortened: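 Cells (4000/well, pre-attached 24 h) then received 5 μM resazurin for 2 h, with fluorescence measured at ex 560/em 590.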

Row | Structure (SMILES) | MIC A. baumannii ATCC 19606 [1] [µg/mL] | MIC A. baumannii GN_093 PmxR [2] [µg/mL] | MIC E. coli ATCC 25922 [3] [µg/mL] | MIC K. pneumoniae ATCC 13883 [4] [µg/mL] | MIC K. pneumoniae ATCC 700603, MDR [5] [µg/mL] | MIC K. pneumoniae ATCC BAA-2146, NDM-1 pos [6] [µg/mL] | MIC K. pneumoniae GN_102 PmxR [7] [µg/mL] | MIC K. pneumoniae GN_106, PmxR [8] [µg/mL] | MIC P. aeruginosa ATCC 27853 [9] [µg/mL] | MIC P. aeruginosa GN_043, PmxR ([10]; polymyxin-resistant) [µg/mL] | MIC P. aeruginosa GN_105, PmxR [11] [µg/mL] | MIC S. aureus ATCC 25923, MSSA [12] [µg/mL] | CC50 at 24 h [13] [µM] | also measured
1 | CCCCCCC[C@@H](O)CC(=O)N[C@H](CCN)C(=O)N[C@H]1CCNC(=O)[C@H](Cc2cccnc2)NC(=O)[C@H](CCN)NC(=O)[C@H](CCN)NC(=O)[C@H](CC(C)C)NC(=O)[C@@H](Cc2ccccc2)NC(=O)[C@H](CCN)NC1=O [compound 8907, 3(R)OH-nC9CO-D-Dab-cyc[L-Dab-L-Dab-D-Phe-L-Leu-L-Dab-L-Dab-L-Ala(3py)]] ({Decanoyl(3R-OH)}-[dDab][Dab][Dab][dF]L[Dab][Dab][3Pal]; lactam 2-C) | >32 | >32 | 4 (≈ 3.71 µM) | 4 (≈ 3.71 µM) | 4 (≈ 3.71 µM) | 8 (≈ 7.41 µM) | 32 (≈ 29.6 µM) | 8 (≈ 7.41 µM) | 1 (≈ 0.926 µM) | 1 (≈ 0.926 µM) | 1 (≈ 0.926 µM) | >32 | > 300 | –
2 | CC(C)C[C@@H]1NC(=O)[C@H](CCN)NC(=O)[C@H](CCN)NC(=O)[C@H](CC(C)C)NC(=O)[C@@H](Cc2ccccc2)NC(=O)[C@H](CCN)NC(=O)[C@@H](NC(=O)[C@@H](CN)NC(=O)c2ccn(-c3ccccc3)c(=O)c2)CCNC1=O [compound 9189, 4-(1-Ph-pyridinone)-D-Dap-cyc[L-Dab-L-Dab-D-Phe-L-Leu-L-Dab-L-Dab-L-Leu]] (X12-[dDap][Dab][Dab][dF]L[Dab][Dab]L; lactam 2-C) | >32 | >32 | >32 | >32 | 32 (≈ 30.3 µM) | 32 (≈ 30.3 µM) | >32 | >32 | 4 (≈ 3.78 µM) | – | 16 (≈ 15.1 µM) | >32 | > 300 | MIC P. aeruginosa GN_043, PmxR ([10]; P. aeruginosa GN_043, PmxR): 4 µg/mL (≈ 3.78 µM)
3 | CCCCCCC[C@@H](O)CC(=O)N[C@H](CCN)C(=O)N[C@H]1CCNC(=O)[C@H](Cc2c[nH]c3ccccc23)NC(=O)[C@H](CCN)NC(=O)[C@H](CCN)NC(=O)[C@H](CC(C)C)NC(=O)[C@@H](Cc2c[nH]c3ccccc23)NC(=O)[C@H](CCN)NC1=O [compound 8127, 3(R)OH-nC9CO-D-Dab-cyc[L-Dab-L-Dab-L-Dab-D-Trp-L-Leu-L-Dab-L-Dab-L-Trp]] ({Decanoyl(3R-OH)}-[dDab][Dab][Dab][dW]L[Dab][Dab]W; lactam 2-C) | 16 (≈ 13.8 µM) | 32 (≈ 27.7 µM) | 2 (≈ 1.73 µM) | 16 (≈ 13.8 µM) | 4 (≈ 3.46 µM) | 4 (≈ 3.46 µM) | 16 (≈ 13.8 µM) | 4 (≈ 3.46 µM) | 2 (≈ 1.73 µM) | 2 (≈ 1.73 µM) | 2 (≈ 1.73 µM) | 4 (≈ 3.46 µM) | 63 | –
4 | CCCCCCCC(=O)N[C@H](CCN)C(=O)N[C@H]1CCNC(=O)[C@H](Cc2c[nH]c3ccccc23)NC(=O)[C@H](CCN)NC(=O)[C@H](CCN)NC(=O)[C@H](CC(C)C)NC(=O)[C@@H](Cc2ccccc2)NC(=O)[C@H](CCN)NC1=O [compound 8901, nC7CO-D-Dab-cyc[L-Dab-L-Dab-D-Phe-L-Leu-L-Dab-L-Dab-L-Trp]] (Octanoyl-[dDab][Dab][Dab][dF]L[Dab][Dab]W; lactam 2-C) | 32 (≈ 29.8 µM) | >32 | 8 (≈ 7.45 µM) | 8 (≈ 7.45 µM) | 8 (≈ 7.45 µM) | 8 (≈ 7.45 µM) | 32 (≈ 29.8 µM) | 32 (≈ 29.8 µM) | 2 (≈ 1.86 µM) | 2 (≈ 1.86 µM) | 8 (≈ 7.45 µM) | 16 (≈ 14.9 µM) | > 300 | –
5 | CCCCCCC[C@@H](O)CC(=O)N[C@H](Cc1cccnc1)C(=O)N[C@H]1CCNC(=O)[C@H](CC(C)C)NC(=O)[C@H](CCN)NC(=O)[C@H](CCN)NC(=O)[C@H](Cc2ccccc2)NC(=O)[C@@H](CC(C)C)NC(=O)[C@H](CCN)NC1=O [compound 6430, 3(R)OH-nC9CO-D-3PyPhe-cyc[L-Dab-L-Dab-D-Leu-L-Phe-L-Dab-L-Dab-L-Leu]] ({Decanoyl(3R-OH)}-[d3Pal][Dab][Dab][dL]F[Dab][Dab]L; lactam 2-C) | 32 (≈ 29.3 µM) | >32 | 16 (≈ 14.6 µM) | 16 (≈ 14.6 µM) | 8 (≈ 7.32 µM) | 16 (≈ 14.6 µM) | 8 (≈ 7.32 µM) | 4 (≈ 3.66 µM) | 32 (≈ 29.3 µM) | – | 32 (≈ 29.3 µM) | >32 | > 300 | MIC P. aeruginosa GN_043, PmxR ([10]; P. aeruginosa GN_043, PmxR): 16 µg/mL (≈ 14.6 µM)
6 | CCCCCCC[C@@H](O)CC(=O)N[C@H](CN)C(=O)N[C@H]1CCNC(=O)[C@H](Cc2c[nH]c3ccccc23)NC(=O)[C@H](CCCNC(=N)N)NC(=O)[C@H](CCCCN)NC(=O)[C@H](C2Cc3ccccc3C2)NC(=O)[C@@H](Cc2ccccc2)NC(=O)[C@H](CCN)NC1=O [compound 8888, 3(R)OH-nC9CO-D-Dap-cyc[L-Dab-L-Dab-D-Phe-L-indanylgly-L-Lys-L-Arg-L-Trp]] ({Decanoyl(3R-OH)}-[dDap][Dab][Dab][dF][Igl]KRW; lactam 2-C) | 4 (≈ 3.21 µM) | 8 (≈ 6.41 µM) | 2 (≈ 1.6 µM) | 4 (≈ 3.21 µM) | 2 (≈ 1.6 µM) | 2 (≈ 1.6 µM) | 4 (≈ 3.21 µM) | 4 (≈ 3.21 µM) | 4 (≈ 3.21 µM) | 4 (≈ 3.21 µM) | 2 (≈ 1.6 µM) | 2 (≈ 1.6 µM) | – | CC50 [13]: 67 µM
7 | CCCCCCC[C@@H](O)CC(=O)N[C@H](CN)C(=O)N[C@H]1CCNC(=O)[C@H](Cc2c[nH]c3ccccc23)NC(=O)[C@H](CCCNC(=N)N)NC(=O)[C@H](CCCCN)NC(=O)[C@H](C(C)(C)C)NC(=O)[C@@H](Cc2ccc(-c3ccccc3)cc2)NC(=O)[C@H](CCN)NC1=O [compound 8892, 3(R)OH-nC9CO-D-Dap-cyc[L-Dab-L-Dab-D-Bip-L-tert-Leu-L-Lys-L-Arg-L-Trp]] ({Decanoyl(3R-OH)}-[dDap][Dab][Dab][dBip][Tle]KRW; lactam 2-C) | 8 (≈ 6.33 µM) | 8 (≈ 6.33 µM) | 4 (≈ 3.17 µM) | 8 (≈ 6.33 µM) | 4 (≈ 3.17 µM) | 4 (≈ 3.17 µM) | 8 (≈ 6.33 µM) | 8 (≈ 6.33 µM) | 8 (≈ 6.33 µM) | 4 (≈ 3.17 µM) | 4 (≈ 3.17 µM) | 4 (≈ 3.17 µM) | > 300 | –
8 | CCCCCCC[C@@H](O)CC(=O)N[C@H](CCCN)C(=O)N[C@H]1CCNC(=O)[C@H](CC(C)C)NC(=O)[C@H](CCN)NC(=O)[C@H](CCN)NC(=O)[C@H](CC(C)C)NC(=O)[C@@H](Cc2ccccc2)NC(=O)[C@H](CCN)NC1=O [compound 6443, 3(R)OH-nC9CO-D-Orn-cyc[L-Dab-L-Dab-D-Phe-L-Leu-L-Dab-L-Dab-L-Leu]] ({Decanoyl(3R-OH)}-[dOrn][Dab][Dab][dF]L[Dab][Dab]L; lactam 2-C) | – | 16 (≈ 15.1 µM) | – | – | – | – | 4 (≈ 3.78 µM) | 4 (≈ 3.78 µM) | – | – | 2 (≈ 1.89 µM) | – | > 300 | MIC, A. baumannii ATCC 19606 [1]: 16 µg/mL (≈ 15.1 µM); MIC, E. coli ATCC 25922 [3]: 8 µg/mL (≈ 7.56 µM); MIC, K. pneumoniae ATCC 13883 [4]: 8 µg/mL (≈ 7.56 µM); MIC, K. pneumoniae ATCC 700603, MDR [5]: 8 µg/mL (≈ 7.56 µM); MIC, K. pneumoniae ATCC BAA-2146, NDM-1 pos [6]: 8 µg/mL (≈ 7.56 µM); MIC, P. aeruginosa ATCC 27853 [9]: 2 µg/mL (≈ 1.89 µM); MIC P. aeruginosa GN_043, PmxR ([10]; Table 6, polymyxin-resistant): 2 µg/mL (≈ 1.89 µM); MIC, S. aureus ATCC 25923, MSSA [12]: 32 µg/mL (≈ 30.2 µM)
